The TGI is the concentration giving total growth inhibition. Higher therefore signals less potent growth arrest.

What all share (experiment): DTP human tumour cell line panel, 48 h
The subject of assay [1] is CAKI-1 renal.
Assay [2] has as its system HCC-2998 colon.
The test system of assay [3] is HL-60(TB) leukemia.
Assay [4] concerns K-562 leukemia.
Assay [5] concerns KM12 colon.
In assay [6] the test system is LOX IMVI melanoma.
For assay [7], the system named is MALME-3M melanoma.
The test system of assay [8] is NCI-H23 lung.
Assay [9] relates to SK-MEL-2 melanoma.
Assay [10] relates to SK-MEL-5 melanoma.

Each structure is given as a SMILES string.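 Grown in 96-well plates, cells were treated for 48 hours with each compound at five concentrations. Insufficient inhibition: endpoint recorded as highest concentration tested. TGI denotes the concentration required for complete inhibition of growth.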

Take `Cc1cn2c(C)csc2c1P(=O)(OC(C)C)OC(C)C`: the total growth inhibition concentration (TGI) in assay [1], in [2], in assay [3], in [4], in assay [5] and in assay [6] was greater than 100 µM each time. Further, the total growth inhibition concentration (TGI) in assay [7], in [8], in assay [9] and in [10] was greater than 100 µM in each case.

For the compound `Cn1ccnc1Sc1ccc(C=Nc2ccc3nc(SCC(=O)NC4CCCCC4)sc3c2)cc1[N+](=O)[O-]`, the TGI in [1], in [2], in [3], in assay [4], in [5] and in assay [6] was greater than 100 µM each time. Also, the TGI in [7] is greater than 100 µM; in assay [8] it was greater than 100 µM; in assay [9], 54.1 µM; in [10] it was greater than 100 µM.

Regarding `CC1=C[C@@H](C)C[C@]2(C)CC[C@H](O2)[C@]23CC[C@](C(=O)O)(C[C@H](O2)[C@@H]2O[C@@](C)(CC2=O)[C@@H](O)[C@H]2CC[C@@]4(CCC[C@@H](O4)[C@H](C)C(=O)O[C@H]4C[C@H]([C@]5(O)OCC[C@H](C)[C@@H]5O)O[C@H]4C=C1)O2)O3`, the TGI in assay [1], in assay [2], in assay [3], in [4], in [5] and in [6] was greater than 10 µM each time. The TGI in [7], in assay [8], in assay [9] and in [10] was greater than 10 µM throughout.

Turning to `COc1cc([C@@H]2c3cc4c(cc3[C@@H](c3c(O)cc(O)c5c3O[C@H](c3ccc(O)c(O)c3)[C@@H](O)C5)[C@H]3COC(=O)[C@H]23)OCO4)cc(OC)c1O`, the TGI in assay [1], in assay [2], in assay [3], in assay [4], in [5] and in [6] was greater than 100 µM throughout. The TGI in assay [7], in [8], in assay [9] and in [10] was greater than 100 µM each time.
